Experimental findings from PubChem BioAssay (NCI) are described below.

Some test systems named below: BT-549 breast; CAKI-1 renal; CCRF-CEM leukemia; COLO 205 colon; DU-145 prostate; HOP-92 NSCLC; HT29 colon; IGROV1 ovarian; K-562 leukemia; LOX IMVI melanoma; M14 melanoma; MCF7 breast; MDA-MB-231 breast; MDA-N; OVCAR-4 ovarian; OVCAR-8 ovarian; SF-295 CNS; SF-539 CNS; SK-MEL-28 melanoma; UACC-257 melanoma.
Assay in all cases: inhibition of tumour cell growth, NCI panel, 48 h

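Tested at 5 concentrations; 48 h exposure; 96-well plates; endpoints linearly interpolated, else capped at highest concentration. TGI: concentration producing complete growth inhibition.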

In the case of `Cc1ccc(O)c(C2=CC3=NNC(=O)C3C(c3cccc(Cl)c3)C2)c1` (stereo not given), the TGI with BT-549 breast was 78.7 µM; in the experiment with CAKI-1 renal, over 100 µM; in the experiment on CCRF-CEM leukemia, over 100 µM; with COLO 205 colon it was 30.4 µM; in the experiment with DU-145 prostate, over 100 µM; in the experiment with HOP-92 NSCLC, 96.1 µM. Further, the TGI is 63.9 µM in the experiment with HT29 colon; over 100 µM with IGROV1 ovarian; over 100 µM in the experiment with K-562 leukemia; 49.1 µM in the experiment on LOX IMVI melanoma; over 100 µM with M14 melanoma; 47.1 µM with MCF7 breast. Moreover, the TGI in the experiment on MDA-MB-231 breast was over 100 µM; with MDA-N it was 92.2 µM; with OVCAR-4 ovarian it was 44.3 µM; with OVCAR-8 ovarian it was 77.3 µM; in the experiment with SF-295 CNS, over 100 µM; with SF-539 CNS, over 100 µM. Moreover, the TGI in the experiment with SK-MEL-28 melanoma and in the experiment on UACC-257 melanoma was over 100 µM throughout.
As for `CC12CCCCC1=C(F)C(F)(F)S2` (stereo not given), the TGI is 43 µM in the experiment on BT-549 breast; 48.9 µM in the experiment on CAKI-1 renal; 22.7 µM in the experiment on CCRF-CEM leukemia; 40.2 µM in the experiment with COLO 205 colon; over 100 µM in the experiment with DU-145 prostate; over 67.9 µM in the experiment with HOP-92 NSCLC. For the same compound, the TGI with HT29 colon was 56.5 µM; in the experiment on IGROV1 ovarian, over 100 µM; in the experiment on K-562 leukemia, 59.2 µM; in the experiment with LOX IMVI melanoma it was 82.6 µM; in the experiment with M14 melanoma, over 83.6 µM; with MCF7 breast it was over 79.6 µM. Besides, the TGI was over 100 µM with MDA-MB-231 breast; over 46.4 µM in the experiment with MDA-N; over 100 µM in the experiment on OVCAR-4 ovarian; 77.3 µM with OVCAR-8 ovarian; over 71.4 µM with SF-295 CNS; over 100 µM with SF-539 CNS. Further, the results for the TGI with SK-MEL-28 melanoma and in the experiment on UACC-257 melanoma were 78.2 µM and 51.6 µM, respectively.
For the compound `Oc1ccc(/C=C/c2cccc(/C=C/c3ccc(O)c(O)c3)n2)cc1O`, the TGI in the experiment with BT-549 breast was over 100 µM; in the experiment with CAKI-1 renal, 90.5 µM; with CCRF-CEM leukemia, over 100 µM; in the experiment with COLO 205 colon it was 28.9 µM; with DU-145 prostate it was 20.6 µM; in the experiment on HOP-92 NSCLC, 25.3 µM. Also, the TGI was 24.5 µM in the experiment with HT29 colon; 19.6 µM in the experiment with IGROV1 ovarian; 49.6 µM in the experiment on K-562 leukemia; 21.7 µM in the experiment on LOX IMVI melanoma; 16.9 µM in the experiment on M14 melanoma; 25.8 µM with MCF7 breast. For the same compound, the TGI in the experiment with MDA-MB-231 breast is 76.7 µM; with MDA-N, 20.5 µM; with OVCAR-4 ovarian, over 100 µM; in the experiment with OVCAR-8 ovarian, 20.8 µM; in the experiment on SF-295 CNS, 65.1 µM; in the experiment on SF-539 CNS, 9.39 µM. The figures for the TGI with SK-MEL-28 melanoma and in the experiment with UACC-257 melanoma were 38.3 µM and 28.5 µM, respectively.
For the compound `COc1cc(/C=C2\C[C@H]3[C@@H]4CCC5=CC(=O)CC[C@]5(C)[C@H]4CC[C@]3(C)C2=O)cc(OC)c1OC`, the TGI with BT-549 breast is over 95.4 µM; in the experiment on CAKI-1 renal, over 65.2 µM; in the experiment with CCRF-CEM leukemia, over 100 µM; in the experiment with COLO 205 colon, over 60.6 µM; in the experiment on DU-145 prostate, over 100 µM; with HOP-92 NSCLC it was over 100 µM. Further, the TGI with HT29 colon is over 100 µM; in the experiment with IGROV1 ovarian, over 100 µM; in the experiment with K-562 leukemia, over 100 µM; in the experiment with LOX IMVI melanoma, over 100 µM; in the experiment on M14 melanoma, over 42.5 µM; with MCF7 breast, over 100 µM. For the same compound, the TGI is over 100 µM in the experiment with MDA-MB-231 breast; over 63.6 µM in the experiment with MDA-N; over 59.7 µM in the experiment on OVCAR-4 ovarian; over 100 µM in the experiment with OVCAR-8 ovarian; over 100 µM in the experiment on SF-295 CNS; over 100 µM in the experiment with SF-539 CNS. Also, the TGI was over 100 µM with SK-MEL-28 melanoma and over 84.2 µM with UACC-257 melanoma.
As for `O=c1nc2ccc([N+](=O)[O-])cc2[n+]([O-])[nH]1`, the TGI in the experiment with BT-549 breast, in the experiment with CAKI-1 renal, in the experiment with CCRF-CEM leukemia, in the experiment with COLO 205 colon, in the experiment with DU-145 prostate and with HOP-92 NSCLC was over 100 µM in each case. Besides, the TGI with HT29 colon, in the experiment on IGROV1 ovarian, in the experiment on K-562 leukemia, in the experiment on LOX IMVI melanoma, with M14 melanoma and in the experiment on MCF7 breast was over 100 µM in each case. In addition, the TGI in the experiment with MDA-MB-231 breast, in the experiment on MDA-N, in the experiment on OVCAR-4 ovarian, with OVCAR-8 ovarian, in the experiment with SF-295 CNS and with SF-539 CNS was over 100 µM throughout. The TGI in the experiment on SK-MEL-28 melanoma and in the experiment on UACC-257 melanoma was over 100 µM throughout.
`COC(=O)c1c(CC(Cc2ccc3c(c2)CCCC3)C(=O)O)ccc2c1CCCC2` (stereo not given): the TGI in the experiment on BT-549 breast was over 100 µM; with CAKI-1 renal it was over 100 µM; in the experiment on CCRF-CEM leukemia it was over 100 µM; in the experiment with COLO 205 colon, 32.9 µM; with DU-145 prostate it was over 100 µM; in the experiment with HOP-92 NSCLC, 50.9 µM. For the same compound, the TGI in the experiment on HT29 colon is over 100 µM; in the experiment with IGROV1 ovarian it was over 100 µM; in the experiment with K-562 leukemia, over 100 µM; in the experiment on LOX IMVI melanoma, 31.4 µM; in the experiment with M14 melanoma it was over 100 µM; in the experiment with MCF7 breast it was 84.1 µM. For the same compound, the TGI with MDA-MB-231 breast was over 100 µM; with MDA-N, over 100 µM; in the experiment with OVCAR-4 ovarian, over 100 µM; in the experiment on OVCAR-8 ovarian, over 100 µM; with SF-295 CNS it was over 100 µM; in the experiment with SF-539 CNS it was 44.9 µM. Also, the results for the TGI with SK-MEL-28 melanoma and in the experiment on UACC-257 melanoma were over 100 µM and 33.3 µM, respectively.
`CC1CN=C(Nc2cccc(F)c2)S1` (stereo not given): the TGI in the experiment on BT-549 breast, in the experiment on CAKI-1 renal, with CCRF-CEM leukemia, with COLO 205 colon, in the experiment with DU-145 prostate and in the experiment with HOP-92 NSCLC was over 100 µM in each case. In addition, the TGI in the experiment on HT29 colon, with IGROV1 ovarian, in the experiment with K-562 leukemia, in the experiment on LOX IMVI melanoma, in the experiment on M14 melanoma and with MCF7 breast was over 100 µM in each case. In addition, the TGI with MDA-MB-231 breast was 25.2 µM; in the experiment with MDA-N, over 100 µM; with OVCAR-4 ovarian, over 100 µM; in the experiment with OVCAR-8 ovarian, over 100 µM; in the experiment with SF-295 CNS it was over 100 µM; in the experiment with SF-539 CNS, over 100 µM. In addition, the TGI in the experiment on SK-MEL-28 melanoma and in the experiment on UACC-257 melanoma was over 100 µM each time.
